Experimental data reported in patent US20100099561A1, “HETEROBICYCLIC ALKYLTHIO-BRIDGED ISOXAZOLINES” (E.I. DU PONT DE NEMOURS AND COMPANY, priority 2008, published 2010).

What was measured:
Type in all cases: in vivo
[1] = tested on: velvetleaf (Abutilon theophrasti); test: Test A postemergence, velvetleaf; settings: 0 to 100 scale (0 no effect, 100 complete control)
How it was run: (§1)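 Scores reflect visual plant injury on a 0 (no effect) to 100 (complete control) scale, assessed about ten days after application in the greenhouse. Compounds were delivered in a non-phytotoxic solvent blend with surfactant, either preemergence to soil or postemergence at one- to two-leaf stage.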

[2] = tested on: corn (Zea mays); test: Test A preemergence, corn; settings: 0 to 100 scale (0 no effect, 100 complete control)
How it was run: as §1

[3] = tested on: catchweed bedstraw (Galium aparine); test: Test B preemergence, catchweed bedstraw; settings: scale 0 to 100
Description: (§2) Seeds of plant species selected from blackgrass (Alopecurus myosuroides), downy bromegrass (Bromus tectorum), green foxtail (Setaria viridis), Italian ryegrass (Lolium multiflorum), wheat (Triticum aestivum), wild oat (Avena fatua), catchweed bedstraw (Galium aparine), bermudagrass (Cynodon dactylon), Surinam grass (Brachiaria decumbens), cocklebur (Xanthium strumarium), corn (Zea mays), large crabgrass (Digitaria sanguinalis), woolly cupgrass (Eriochloa villosa), giant foxtail (Setaria faberii), goosegrass (Eleusine indica), johnsongrass (Sorghum halepense), kochia (Kochia scoparia), lambsquarters (Chenopodium album), morningglory (Ipomoea coccinea), nightshade (eastern black nightshade, Solanum ptycanthum), yellow nutsedge (Cyperus esculentus), pigweed (Amaranthus retroflexus), ragweed (common ragweed, Ambrosia elatior), soybean (Glycine max), sunflower (common oilseed sunflower, Helianthus annuus), Russian thistle (Salsola kali), and velvetleaf (Abutilon theophrasti) were planted into a blend of loam soil and sand and treated preemergence with test compounds formulated in a non-phytotoxic solvent mixture which included a surfactant. Treated plants and controls were maintained in a greenhouse for 13 to 15 days, after which time all species were compared to controls and visually evaluated. Plant response ratings, summarized in Table B, are based on a scale of 0 to 100 where 0 is no effect and 100 is complete control. A dash (-) response means no test result.

[4] = tested on: giant foxtail (Setaria faberi); test: Test A postemergence, giant foxtail; settings: 0 to 100 scale (0 no effect, 100 complete control)
How it was run: as §1

[5] = tested on: wheat (Triticum aestivum); test: Test A postemergence, wheat; settings: 0 to 100 scale (0 no effect, 100 complete control)
How it was run: as §1

[6] = tested on: pigweed (Amaranthus retroflexus); test: Test A preemergence, pigweed; settings: 0 to 100 scale (0 no effect, 100 complete control)
How it was run: as §1

[7] = tested on: barnyardgrass (Echinochloa crus-galli); test: Test B flooded paddy test, barnyardgrass; settings: Flood
How it was run: (§3)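 Compounds were added directly to paddy water over 2-leaf-stage plants in pots flooded 3 cm above soil, water depth maintained. Visual injury scored against controls after 13 to 15 days in greenhouse, 0 (none) to 100 (complete control); dash indicates no result.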

[8] = tested on: Italian ryegrass (Lolium multiflorum); test: Test B preemergence, Italian ryegrass; settings: Preemergence, scale 0 to 100
How it was run: (§4)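 Planting into loam soil blended with sand preceded preemergence treatment. After 13 to 15 days under greenhouse conditions, response was judged by eye against controls, 0 meaning no effect and 100 complete control.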

[9] = tested on: corn (Zea mays); test: Test A postemergence, corn; settings: 0 to 100 scale (0 no effect, 100 complete control)
How it was run: as §1

[10] = tested on: nightshade (eastern black nightshade, Solanum ptycanthum); test: Test B preemergence, nightshade; settings: scale 0 to 100
Description: as §2

[11] = tested on: wheat (Triticum aestivum); test: Test B preemergence, wheat; settings: Preemergence, scale 0 to 100
How it was run: as §4

[12] = tested on: large crabgrass (Digitaria sanguinalis); test: Test A preemergence, large crabgrass; settings: 0 to 100 scale (0 no effect, 100 complete control)
How it was run: as §1

[13] = tested on: umbrella sedge (Cyperus difformis); test: Test B flooded paddy test, umbrella sedge; settings: Flood, scale 0 to 100
How it was run: as §3

[14] = tested on: Surinam grass (Brachiaria decumbens); test: Test B preemergence, Surinam grass; settings: Preemergence, scale 0 to 100
How it was run: as §4

[15] = tested on: lambsquarters (Chenopodium album); test: Test B preemergence, lambsquarters; settings: scale 0 to 100
Description: as §2

[16] = tested on: bermudagrass (Cynodon dactylon); test: Test B preemergence, bermudagrass; settings: scale 0 to 100
Description: as §2

[17] = tested on: barnyardgrass (Echinochloa crus-galli); test: Test A preemergence, barnyardgrass; settings: 0 to 100 scale (0 no effect, 100 complete control)
How it was run: as §1

[18] = tested on: pigweed (Amaranthus retroflexus); test: Test A postemergence, pigweed; settings: 0 to 100 scale (0 no effect, 100 complete control)
How it was run: as §1

[19] = tested on: woolly cupgrass (Eriochloa villosa); test: Test B preemergence, woolly cupgrass; settings: scale 0 to 100
Description: as §2

[20] = tested on: cocklebur (Xanthium strumarium); test: Test B preemergence, cocklebur; settings: scale 0 to 100
Description: as §2

[21] = 250 g ai/ha, scale 0 to 100 (0 no effect, 100 complete control)

CC1(C)CC(S(=O)(=O)Cc2c(C(F)(F)F)nc3n(c2=O)CCC3)=NO1 [Compound 11, 3-[[(4,5-dihydro-5,5-dimethyl-3-isoxazolyl)sulfonyl]methyl]-7,8-dihydro-2-(trifluoromethyl)pyrrolo[1,2-α]pyrimidin-4(6H)-one]
85: Plant response rating, Surinam Grass ([14]; 125 g ai/ha) | Plant response rating, Cupgrass, Woolly ([19]; 16 g ai/ha)
0: Plant response rating, Corn ([2]; 125 g ai/ha) | Plant response rating, Corn ([2]; 500 g ai/ha) | Plant response rating, Galium ([3]; 16 g ai/ha) | Plant response rating, Galium ([3]; 31 g ai/ha) | Plant response rating, Barnyardgrass ([7]; 31 g ai/ha, scale 0 to 100) | Plant response rating, Barnyardgrass ([7]; 62 g ai/ha, scale 0 to 100) | Plant response rating, Barnyardgrass ([7]; 125 g ai/ha, scale 0 to 100) | Plant response rating, Ryegrass, Italian ([8]; 16 g ai/ha) | Plant response rating, Ryegrass, Italian ([8]; 31 g ai/ha) | Plant response rating, Ryegrass, Italian ([8]; 62 g ai/ha) | Plant response rating, Nightshade ([10]; 16 g ai/ha) | Plant response rating, Wheat ([11]; 16 g ai/ha) | Plant response rating, Wheat ([11]; 31 g ai/ha) | Plant response rating, Sedge, Umbrella ([13]; 31 g ai/ha) | Plant response rating, Sedge, Umbrella ([13]; 62 g ai/ha) | Plant response rating, Sedge, Umbrella ([13]; 125 g ai/ha) | Plant response rating, Surinam Grass ([14]; 16 g ai/ha) | Plant response rating, Surinam Grass ([14]; 31 g ai/ha) | Plant response rating, Surinam Grass ([14]; 62 g ai/ha) | Plant response rating, Lambsquarters ([15]; 16 g ai/ha) | Plant response rating, Lambsquarters ([15]; 31 g ai/ha) | Plant response rating, Lambsquarters ([15]; 62 g ai/ha) | Plant response rating, Cocklebur ([20]; 16 g ai/ha) | Plant response rating, Cocklebur ([20]; 31 g ai/ha) | Plant response rating, Cocklebur ([20]; 62 g ai/ha) | Plant response rating, Cocklebur ([20]; 125 g ai/ha)
95: Plant response rating, Galium ([3]; 62 g ai/ha) | Plant response rating, Nightshade ([10]; 62 g ai/ha)
60: Plant response rating, Wheat ([5]; 500 g ai/ha) | Plant response rating, Nightshade ([10]; 31 g ai/ha) | Plant response rating, Barnyardgrass ([17]; 125 g ai/ha)
80: Plant response rating, Velvetleaf ([1]; 500 g ai/ha) | Plant response rating, Foxtail, Giant ([4]; 125 g ai/ha) | Plant response rating, Foxtail, Giant ([4]; 500 g ai/ha) | Plant response rating, Crabgrass, Large ([12]; 125 g ai/ha)
100: Plant response rating, Pigweed ([6]; 500 g ai/ha) | Plant response rating, Lambsquarters ([15]; 125 g ai/ha) | Plant response rating, Bermudagrass ([16]; 31 g ai/ha) | Plant response rating, Bermudagrass ([16]; 62 g ai/ha) | Plant response rating, Bermudagrass ([16]; 125 g ai/ha) | Plant response rating, Cupgrass, Woolly ([19]; 31 g ai/ha) | Plant response rating, Cupgrass, Woolly ([19]; 62 g ai/ha) | Plant response rating, Cupgrass, Woolly ([19]; 125 g ai/ha)
50: Plant response rating, Velvetleaf ([1]; 125 g ai/ha) | Plant response rating, Corn ([9]; 500 g ai/ha) | Plant response rating, Wheat ([11]; 125 g ai/ha)
65: Plant response rating, Bermudagrass ([16]; 16 g ai/ha)
70: Plant response rating, Pigweed ([18]; 500 g ai/ha)
30: Plant response rating, Pigweed ([6]; 125 g ai/ha) | Plant response rating, Pigweed ([18]; 125 g ai/ha)
20: Plant response rating, Wheat ([5]; 125 g ai/ha) | Plant response rating, Barnyardgrass [7, 21] | Plant response rating, Corn ([9]; 125 g ai/ha) | Plant response rating, Wheat ([11]; 62 g ai/ha) | Plant response rating, Sedge, Umbrella ([13]; 250 g ai/ha)
98: Plant response rating, Galium ([3]; 125 g ai/ha) | Plant response rating, Nightshade ([10]; 125 g ai/ha)
90: Plant response rating, Ryegrass, Italian ([8]; 125 g ai/ha) | Plant response rating, Crabgrass, Large ([12]; 500 g ai/ha) | Plant response rating, Barnyardgrass ([17]; 500 g ai/ha)

CC1(C)CC(S(=O)(=O)Cc2c(C(F)(F)Cl)nc3n(c2=O)CCC3)=NO1 [Compound 18]
0: Plant response rating, Corn ([2]; 125 g ai/ha) | Plant response rating, Corn ([2]; 500 g ai/ha) | Plant response rating, Galium ([3]; 62 g ai/ha) | Plant response rating, Galium ([3]; 125 g ai/ha) | Plant response rating, Wheat ([5]; 125 g ai/ha) | Plant response rating, Barnyardgrass ([7]; 31 g ai/ha, scale 0 to 100) | Plant response rating, Barnyardgrass ([7]; 62 g ai/ha, scale 0 to 100) | Plant response rating, Barnyardgrass ([7]; 125 g ai/ha, scale 0 to 100) | Plant response rating, Barnyardgrass [7, 21] | Plant response rating, Ryegrass, Italian ([8]; 16 g ai/ha) | Plant response rating, Ryegrass, Italian ([8]; 31 g ai/ha) | Plant response rating, Corn ([9]; 125 g ai/ha) | Plant response rating, Nightshade ([10]; 16 g ai/ha) | Plant response rating, Nightshade ([10]; 31 g ai/ha) | Plant response rating, Nightshade ([10]; 62 g ai/ha) | Plant response rating, Wheat ([11]; 16 g ai/ha) | Plant response rating, Wheat ([11]; 31 g ai/ha) | Plant response rating, Sedge, Umbrella ([13]; 31 g ai/ha) | Plant response rating, Sedge, Umbrella ([13]; 62 g ai/ha) | Plant response rating, Sedge, Umbrella ([13]; 125 g ai/ha) | Plant response rating, Sedge, Umbrella ([13]; 250 g ai/ha) | Plant response rating, Surinam Grass ([14]; 16 g ai/ha) | Plant response rating, Lambsquarters ([15]; 16 g ai/ha) | Plant response rating, Lambsquarters ([15]; 31 g ai/ha) | Plant response rating, Bermudagrass ([16]; 16 g ai/ha) | Plant response rating, Cupgrass, Woolly ([19]; 16 g ai/ha) | Plant response rating, Cocklebur ([20]; 16 g ai/ha) | Plant response rating, Cocklebur ([20]; 31 g ai/ha) | Plant response rating, Cocklebur ([20]; 62 g ai/ha) | Plant response rating, Cocklebur ([20]; 125 g ai/ha)
100: Plant response rating, Pigweed ([6]; 500 g ai/ha) | Plant response rating, Crabgrass, Large ([12]; 500 g ai/ha) | Plant response rating, Bermudagrass ([16]; 62 g ai/ha) | Plant response rating, Bermudagrass ([16]; 125 g ai/ha) | Plant response rating, Barnyardgrass ([17]; 500 g ai/ha)
80: Plant response rating, Foxtail, Giant ([4]; 500 g ai/ha)
50: Plant response rating, Wheat ([11]; 62 g ai/ha)
90: Plant response rating, Crabgrass, Large ([12]; 125 g ai/ha)
85: Plant response rating, Surinam Grass ([14]; 125 g ai/ha) | Plant response rating, Lambsquarters ([15]; 125 g ai/ha)
20: Plant response rating, Cupgrass, Woolly ([19]; 31 g ai/ha)
30: Plant response rating, Velvetleaf ([1]; 125 g ai/ha) | Plant response rating, Pigweed ([18]; 125 g ai/ha)
65: Plant response rating, Cupgrass, Woolly ([19]; 62 g ai/ha)
35: Plant response rating, Ryegrass, Italian ([8]; 62 g ai/ha)
98: Plant response rating, Bermudagrass ([16]; 31 g ai/ha)
75: Plant response rating, Surinam Grass ([14]; 62 g ai/ha) | Plant response rating, Lambsquarters ([15]; 62 g ai/ha)
95: Plant response rating, Nightshade ([10]; 125 g ai/ha) | Plant response rating, Cupgrass, Woolly ([19]; 125 g ai/ha)
60: Plant response rating, Velvetleaf ([1]; 500 g ai/ha) | Plant response rating, Wheat ([5]; 500 g ai/ha) | Plant response rating, Pigweed ([6]; 125 g ai/ha)
70: Plant response rating, Foxtail, Giant ([4]; 125 g ai/ha) | Plant response rating, Barnyardgrass ([17]; 125 g ai/ha)
40: Plant response rating, Ryegrass, Italian ([8]; 125 g ai/ha) | Plant response rating, Corn ([9]; 500 g ai/ha) | Plant response rating, Surinam Grass ([14]; 31 g ai/ha) | Plant response rating, Pigweed ([18]; 500 g ai/ha)
